In patent publication EP0775489A1, “INTERLEUKIN-5 PRODUCTION INHIBITOR” (TAISHO PHARMACEUTICAL CO. LTD, priority 1994, dated 1996):

Tests used:
[1] = tested on: IL-5 production; experiment: Inhibition of IL-5 production by D10.G4.1 Th2 cells stimulated with conalbumin and antigen presenting cells (IL-5 ELISA); type: cell-based; conditions: inhibitory effect on IL-5 production; murine Th2 clone D10.G4.1 cells, conalbumin as antigen, 48 hours incubation, IL-5 in supernatant by ELISA
Description: The action on IL-5 production in mice was examined according to the following method as disclosed in […], et al., Immunology Letters, Vol. 34, pp. 297-302 (1992). Murine Th2 clone (D10.G4.1 cells) was purchased from ATCC. Antigen presenting cells were prepared by suspending 1 x 10^7 spleen cells of a 8-week-old female C3H/HeN mice in 5 ml of an RPMI-1640 medium and incubated together with 50 μg/ml of mitomycin C (MMC) at 37°C for 30 minutes and then washed with three 50 ml portions of RPMI-1640. To RPMI-1640 containing 10% bovine serum were added 0.5 U of IL-2 (produced by Genzyme) and 5 x 10^-5 M of 2-mercaptoethanol to prepare a medium for tissue culture. A test compound was dissolved in dimethyl sulfoxide (DMSO) and diluted with the tissue culture medium to have a final DMSO concentration of 0.1% and a varied test compound concentration. In each well of a 96-well microtiter plate (produced by Corning Glass Works) were put each 50 μl/well of 4 x 10^5 cells/ml of D10.G4.1 cells, 2 x 10^6 cells/ml of MMC-treated antigen presenting cells, 400 μg/ml of conalbumin (produced by Sigma) as an antigen and the solution of the test compound in the tissue culture medium (to make 200 μl/well), and incubated in an incubator under 5% CO2 at 37°C for 48 hours. After completion of the incubation, the supernatant liquor of the culture was collected, and the cells were separated by centrifugation. The IL-5 in the supernatant liquor was determined with an IL-5 ELISA kit produced by ENDOGEN. […]

[2] = tested on: ICR male mice; experiment: Oral toxicity (mortality) in mice; type: in vivo; conditions: orally administered to ICR male mice grouped in fives, dose level of 100 mg/kg
Text: The compounds of Examples 1, 2, and 3 were orally administered to ICR male mice grouped in fives.

[3] = tested on: IL-5 production; conditions: reported in Japanese Journal of Allergology, 44(3-2), p. 424 (1993); judged not sufficient by the patent; cited from earlier work

Compound | IC50 [1] [nM] | death [2] | inhibitory activity on IL-5 production [3]
11-Amino-9-N,11-N-cyclic ethylene-9-deoxo-11-deoxy-6-O-methylerythromycin A 9-Benzylamine 11-N,12-O-Cyclic Carbamate [Compound of Example 3] | 120 | No death was observed | 
CC[C@H]1OC(=O)[C@H](C)[C@@H](O[C@H]2C[C@@](C)(OC)[C@@H](O)[C@H](C)O2)[C@H](C)[C@@H](O[C@@H]2O[C@H](C)C[C@H](N(C)C)[C@H]2O)[C@](C)(O)C[C@@H](C)C(=O)[C@H](C)[C@@H](O)[C@]1(C)O [Erythromycin] |  |  | have an inhibitory activity on IL-5 production
6-O-Methylerythromycin A 9-[O-(3-Methoxy-4-t-butylbenzyl)oxime] 11,12-Cyclic Carbonate [Compound of Example 2] | 120 | No death was observed | 
CC[C@H]1OC(=O)[C@H](C)[C@@H](O[C@H]2C[C@@](C)(OC)[C@@H](O)[C@H](C)O2)[C@H](C)[C@@H](O[C@@H]2O[C@H](C)C[C@H](N(C)C)[C@H]2O)[C@](C)(O)C[C@@H](C)/C(=N\OCOCCOC)[C@H](C)[C@@H](O)[C@]1(C)O [Roxithromycin] |  |  | have an inhibitory activity on IL-5 production
6-O-Methylerythromycin A 9-[O-(2-Chlorophenylmethyl)oxime] [Compound of Example 1] | 270 | No death was observed | 
